{
  "source": "patent US20230398133A1",
  "about": "“USE OF B-CELL LYMPHOMA 2 (BCL-2) INHIBITOR AND PHARMACEUTICAL COMPOSITION FOR TREATING CELLULAR SENESCENCE-RELATED SKIN DISEASES” (Xeon Biopharmaceutical Limited, priority 2020, published 2023)",
  "key": {"[1]": {"test_system": "imiquimod-induced psoriasis mouse model", "experiment": "Subcutaneous injection of ABT-737 injection in imiquimod-induced psoriasis mouse model (Example 5)", "assay_type": "in vivo", "conditions": "subcutaneous injection 25 mg/kg/day", "procedure": "Effects of subcutaneous injection of 2.5 mg/ml BCL-2 inhibitor (ABT-737 injection) on imiquimod-induced psoriasis mouse model were studied.\n16 healthy female Balb/c mice at the age of 8 weeks with a body weight of 20±2 g were taken, and depilated by 2×2 cm^2 on the back of the torso. After 24 h of depilation, it was confirmed that there was no abnormal change in depilated areas, and the mice were randomly divided into 4 groups, including: (1) a normal control group (3 mice): no special operations were conducted; (2) a psoriasis mouse model group (3 mice): psoriasis model was induced by external application of imiquimod; (3) a group of subcutaneous injection of ABT-737 injection (Example 1) to treat psoriasis mouse model (hereinafter referred to as ABT-737 subcutaneous injection group, 5 mice): psoriasis model was induced by external application of imiquimod, and subcutaneous injection of 25 mg/kg/day ABT-737 was conducted for treatment (that is, 200 μl of 2.5 mg/ml ABT-737 injection was given to the above-mentioned mice); (4) a group of subcutaneous injection of blank injection (Example 3) to treat psoriasis mouse model (hereinafter referred to as blank injection for subcutaneous injection group, 5 mice): psoriasis model was induced by external application of imiquimod, and subcutaneous injection of blank injection was conducted in an equal volume with the ABT-737 subcutaneous injection group.\nExcept for the normal control group, the above-mentioned mice are all prepared with imiquimod-induced psoriasis models: 62.5 mg of 5% imiquimod (Sichuan Med Shine Pharmaceutical Co., Ltd.) was applied evenly with a cotton swab on the depilated areas on the back of the torso of the mouse, by once a day for 7 consecutive days with an interval of 24 h. After the modeling, the skin of the mouse back modeling in the psoriasis model group was taken for tissue paraffin embedding and routine section for HE staining observation. Compared with the normal control group, the model is established based on histological changes such as parakeratosis and spinous layer hypertrophy.\nImmunohistochemical staining of p16, p21 and CD4 was conducted at the same time. The ratio of p16 and p21 positive cells of skin cellular senescence-related molecules between each group was compared under a multispectral microscope, and the infiltration degree of CD4^+ T cells in the skin between each group was compared (FIG. 3). • (3) In addition, the skin specimens of the back modeling sites of the torso of a total of 10 mice in the ABT-737 subcutaneous injection group and the blank injection for subcutaneous injection group were taken, added to an RNA protection solution, cut and ground to prepare a single cell suspension. […]"}, "[2]": {"test_system": "imiquimod-induced psoriasis mouse model", "experiment": "External application of ABT-737 gel and intraperitoneal injection of ABT-737 injection in imiquimod-induced psoriasis mouse model (Example 6)", "assay_type": "in vivo", "conditions": "intraperitoneal injection 25 mg/kg/day", "procedure": "Effects of external application of BCL-2 inhibitor ABT-737 gel (Example 2) and intraperitoneal injection of 2.5 mg/ml BCL-2 inhibitor ABT-737 injection (Example 1) on imiquimod-induced psoriasis mouse model was studied.\n19 healthy female Balb/c mice at the age of 8 weeks with a body weight of 20±2 g were taken, and depilated by 2×2 cm^2 on the back of the torso. After 24 h of depilation, it was confirmed that there was no abnormal change in depilated areas, and the mice were randomly divided into 5 groups, including: (1) a psoriasis mouse model group (3 mice): psoriasis model was induced by external application of imiquimod; (2) a group external application of ABT-737 gel (Example 2) for treating psoriasis mouse model (hereinafter referred to as ABT-737 gel treatment group, 5 mice): psoriasis model was induced by external application of imiquimod, and each mouse was treated with ABT-737 gel 0.5 g/day for external application; (3) a group of external application of blank gel (Example 4) to treat the psoriasis mouse model (hereinafter referred to as the blank gel control group, 5 mice): the psoriasis model was induced by external application of imiquimod, and each mouse was treated with blank gel the same amount as the ABT-737 treatment group by external application; (4) a group of intraperitoneal injection of BCL-2 inhibitor ABT-737 injection (Example 1; hereinafter referred to as ABT-737 intraperitoneal injection treatment group, 3 mice): psoriasis model was induced by external application of imiquimod, and each mouse was treated by intraperitoneal injection of 25 mg/kg/day of ABT-737 (that is, 200 μl of 2.5 mg/ml ABT-737 injection was given to the above-mentioned mice); (5) a group of blank injection for intraperitoneal injection (Example 3; hereinafter referred to as blank injection for intraperitoneal injection group, 3 mice): psoriasis model was induced by external application of imiquimod, and each mouse was treated by intraperitoneal injection of 200 μl of blank injection. […]"}, "[3]": {"conditions": "vs blank injection for subcutaneous injection group, FIG. 3"}},
  "data": [
    {"molecule": "CN(C)CC[C@H](CSc1ccccc1)Nc1ccc(S(=O)(=O)NC(=O)c2ccc(N3CCN(Cc4ccccc4-c4ccc(Cl)cc4)CC3)cc2)cc1[N+](=O)[O-]", "note": "[ABT-737]", "values": [
      {"measurement": "dermal inflammatory cells (HE staining)", "setting": "[1]; FIG. 2", "result": "significantly reduced"},
      {"measurement": "downward extension of epidermal protrusions on the back skin lesions (HE staining)", "setting": "[1]; FIG. 2", "result": "significantly reduced"},
      {"measurement": "spinous cell layer (HE staining)", "setting": "[1]; FIG. 2", "result": "thinned"},
      {"measurement": "systemic damage", "setting": "[1]; conclusion from spleen and DLN T cell subsets", "result": "without any systemic damage"},
      {"measurement": "appearance of skin at the modeling site: skin swelling, skin thickening and scales", "setting": "[1]; vs blank injection for subcutaneous injection group and psoriasis model group, FIG. 1", "result": "significant improvement"},
      {"measurement": "proportion of CD4+ cells infiltrated by dermal inflammation (immunohistochemistry)", "setting": "[1]; [3]", "result": "significantly reduced"},
      {"measurement": "proportion of senescent cells staining positive in p16 and p21 in paraffin sections of skin lesions (immunohistochemistry)", "setting": "[1]; [3]", "result": "significantly reduced"},
      {"measurement": "mRNA expression levels of genes corresponding to P16, P21, BCL-2, INF-7 and IL17A in skin (real-time quantitative PCR)", "setting": "[1]; vs blank injection for subcutaneous injection group, FIG. 4", "result": "decrease significantly"},
      {"measurement": "improvement of the skin lesions of the mouse model (skin appearance)", "setting": "[2]; FIG. 6", "result": "better than the psoriasis model group, the blank gel control group and the blank injection for intraperitoneal injection group, but is slightly inferior to the ABT-737 gel treatment group"},
      {"measurement": "improvement of the skin lesions of the mouse model (HE pathological sections)", "setting": "[2]; FIG. 7", "result": "better than the psoriasis model group, the blank gel control group and the blank injection for intraperitoneal injection group, but is slightly inferior to the ABT-737 gel treatment group"},
      {"measurement": "reduction of p16, p21, CD4 and BCL2 positive cells (immunohistochemistry)", "setting": "[2]; FIG. 8", "result": "better than the blank gel control group and the blank injection for intraperitoneal injection group, but is slightly inferior to the ABT-737 gel treatment group"}
    ]}
  ]
}
